In article PMC7309225, “Synthesis, Biodistribution, and Radiation Dosimetry of a Novel mGluR5 Radioligand: ^18F-AZD9272” (ACS Chemical Neuroscience, 2020):

Experiments:
[1] = Stability of formulated radioligand in PBS (analytical radio-HPLC); assay type: physicochemical
Method: The radiochemical purity, identity, and stability of ^18F-AZD9272 was determined by using an analytical HPLC system which included a ACE RP column (C18, 3.9 Ø × 250 mm, 5 μm particle size), Merck-Hitatchi L-7100 Pump, L-7400 UV detector, and GM tube for radioactivity detection (VWR International). The mobile phase CH3CN/0.1% TFA with a gradient HPLC method (10–90% in 8 min) and flow rate of 3 mL/min was used to elute the product. The effluent was monitored with a UV absorbance detector (λ = 270 nm) coupled to a radioactive detector (b-flow, Beckman, Fullerton, CA). The retention time (Rt) of ^18F-AZD9272 was 4–5 min. The identity of ^18F-AZD9272 was confirmed by using HPLC with the coinjection of the authentic nonradioactive AZD9272 (3-fluoro-5-(3-(5-fluoropyridin-2-yl)-1,2,4-oxadiazol-5-yl)benzonitrile) standard.

[2] = Whole body PET and radiation dosimetry (OLINDA/EXM 1.1); assay type: in vivo, cynomolgus monkey; conditions: for Estimated radiation dose: human estimate, adult male model
Method: Two female cynomolgus monkeys (NHP3: 7420 g and NHP4: 6360 g) were used in this study. Anesthesia was induced by intramuscular injection of ketamine hydrochloride (approximately 10 mg/kg) at AFL and maintained by intravenous infusion of ketamine (4 mg/kg/h) and xylazine (0.4 mg/kg/h) with a pump. The body of the NHP was immobilized using a vacuum pad. Body temperature was maintained by using a Bair Hugger system (model 505, Arizant Healthcare, MN) and monitored with an esophageal thermometer. Heart rate, blood pressure, respiratory rate, and oxygen saturation were continuously monitored throughout the experiments. Fluid balance was maintained by continuous infusion of saline.
Whole-body PET scans were conducted using a GE Discovery PET/CT 710 system (GE Healthcare, Waukesha, WI). One low-dose CT scan was performed before intravenous administration of ^18F-AZD9272 for attenuation correction. Then five series of PET acquisitions, each covering five axial fields of view (AFOV), were conducted. The five PET series consisted of two 20 s × 5 AFOV, three 40 s × 5 AFOV, three 80 s × 5 AFOV, three 160 s × 5 AFOV, and eight 240 s × 5 AFOV. The total duration of the whole-body PET measurement was around 4 h. PET images were reconstructed with a 3D ordered-subset expectation maximization (OSEM) algorithm with three iterations and 18 subsets, including the time-of-flight information (VUE Point FX) and the point spread function correction (Sharp IR). A 2D Gaussian filter with 5.5 mm cutoff was used.
ROIs were drawn for the brain, heart, liver, lung, kidney, gall bladder, bone (lumbar vertebrae), urinary bladder, stomach, small intestine, spleen, and pancreas with the help of the CT images for anatomic landmarks. The time–activity curve was expressed as the percentage of the injected dose (%ID) calculated as follows: decay-corrected radioactivity (Bq/cc) × ROI volume (cc)/injected dose (Bq) × 100.
Estimates of the absorbed radiation dose in humans were calculated with OLINDA/EXM 1.1 (Organ Level INternal Dose Assessment Code) software, using the adult male (70 kg) reference model.[36] The fractional uptake in NHP organs was assumed to be equal to the uptake in human organs.

In the case of `N#Cc1cc(F)cc(-c2nc(-c3ccc([18F])cn3)no2)c1` [^18F-AZD9272, 3-fluoro-5-(3-(5-[^18F]fluoropyridin-2-yl)-1,2,4-oxadiazol-5-yl)benzonitrile], the “Radiochemical purity after storage (stability)” value ([1]; 2 h after formulation in sterile phosphate buffered solution (pH = 7.4)) is reported as > 99%, the “Stability in PBS buffered solution” value ([1]; pH = 7.4, duration of 120 min) is reported as “stable” and the Estimated radiation dose ([2]; LLI wall, NHP3) is reported as 26.8 μSv/MBq. The Estimated radiation dose ([2]; LLI wall, NHP4) was 27.9 μSv/MBq, the Estimated radiation dose ([2]; LLI wall, mean) was 27.4 μSv/MBq and the “Whole body organ uptake (PET)” value ([2]; NHP whole body) was “High uptakes were seen in liver and small intestine, followed by brain and kidney”. It also gave an Estimated radiation dose ([2]; ULI wall, NHP3) of 65.7 μSv/MBq, an Estimated radiation dose ([2]; ULI wall, NHP4) of 69.4 μSv/MBq and an Estimated radiation dose ([2]; ULI wall, mean) of 67.6 μSv/MBq. It also gave an Estimated radiation dose ([2]; adrenals, NHP3) of 14.6 μSv/MBq, an Estimated radiation dose ([2]; adrenals, NHP4) of 14.1 μSv/MBq and an Estimated radiation dose ([2]; adrenals, mean) of 14.4 μSv/MBq. For the same compound, the Estimated radiation dose ([2]; brain, NHP3) was 13.0 μSv/MBq, the Estimated radiation dose ([2]; brain, NHP4) was 17.4 μSv/MBq and the Estimated radiation dose ([2]; brain, mean) was 15.2 μSv/MBq. The Estimated radiation dose ([2]; breasts, NHP3) was 8.0 μSv/MBq, the Estimated radiation dose ([2]; breasts, NHP4) was 7.9 μSv/MBq and the Estimated radiation dose ([2]; breasts, mean) was 7.9 μSv/MBq. The Estimated radiation dose ([2]; effective dose, NHP3) was 17.4 μSv/MBq, the Estimated radiation dose ([2]; effective dose, NHP4) was 17.4 μSv/MBq and the Estimated radiation dose ([2]; effective dose, mean) was 17.4 μSv/MBq. For the same compound, the Estimated radiation dose ([2]; gallbladder wall, NHP3) was 21.3 μSv/MBq, the Estimated radiation dose ([2]; gallbladder wall, NHP4) was 21.1 μSv/MBq and the Estimated radiation dose ([2]; gallbladder wall, mean) was 21.2 μSv/MBq. It also gave an Estimated radiation dose ([2]; heart wall, NHP3) of 17.5 μSv/MBq, an Estimated radiation dose ([2]; heart wall, NHP4) of 19.0 μSv/MBq and an Estimated radiation dose ([2]; heart wall, mean) of 18.3 μSv/MBq. For the same compound, the “Human radiation dose estimate, upper large intestine (ULI) wall” value ([2]; highest-dose organ) was “around 0.068 mSv/MBq”, the “Radioactivity that can be injected to humans” value ([2]; if the limit is 10 mSv for the total radiation exposure) was 570 MBq and the Estimated radiation dose ([2]; kidneys, NHP3) was 42.3 μSv/MBq. For the same compound, the Estimated radiation dose ([2]; kidneys, NHP4) was 29.6 μSv/MBq, the Estimated radiation dose ([2]; kidneys, mean) was 36.0 μSv/MBq and the Estimated radiation dose ([2]; liver, NHP3) was 47.0 μSv/MBq. For the same compound, the Estimated radiation dose ([2]; liver, NHP4) was 45.7 μSv/MBq, the Estimated radiation dose ([2]; liver, mean) was 46.4 μSv/MBq and the Estimated radiation dose ([2]; lungs, NHP3) was 12.7 μSv/MBq. The Estimated radiation dose ([2]; lungs, NHP4) was 11.8 μSv/MBq, the Estimated radiation dose ([2]; lungs, mean) was 12.3 μSv/MBq and the “Human radiation dose estimate, most organs” value ([2]; most organs) was 0.01–0.02 mSv/MBq. The Estimated radiation dose ([2]; muscle, NHP3) was 10.1 μSv/MBq, the Estimated radiation dose ([2]; muscle, NHP4) was 10.0 μSv/MBq and the Estimated radiation dose ([2]; muscle, mean) was 10.1 μSv/MBq. For the same compound, the Estimated radiation dose ([2]; osteogenic cells, NHP3) was 14.5 μSv/MBq, the Estimated radiation dose ([2]; osteogenic cells, NHP4) was 14.5 μSv/MBq and the Estimated radiation dose ([2]; osteogenic cells, mean) was 14.5 μSv/MBq. It also gave an Estimated radiation dose ([2]; ovaries, NHP3) of 18.2 μSv/MBq, an Estimated radiation dose ([2]; ovaries, NHP4) of 18.6 μSv/MBq and an Estimated radiation dose ([2]; ovaries, mean) of 18.4 μSv/MBq. It also gave an Estimated radiation dose ([2]; pancreas, NHP3) of 16.4 μSv/MBq, an Estimated radiation dose ([2]; pancreas, NHP4) of 15.4 μSv/MBq and an Estimated radiation dose ([2]; pancreas, mean) of 15.9 μSv/MBq. The Estimated radiation dose ([2]; red marrow, NHP3) was 10.7 μSv/MBq, the Estimated radiation dose ([2]; red marrow, NHP4) was 10.7 μSv/MBq and the Estimated radiation dose ([2]; red marrow, mean) was 10.7 μSv/MBq. The Estimated radiation dose ([2]; skin, NHP3) was 7.4 μSv/MBq, the Estimated radiation dose ([2]; skin, NHP4) was 7.4 μSv/MBq and the Estimated radiation dose ([2]; skin, mean) was 7.4 μSv/MBq. It also gave an Estimated radiation dose ([2]; small intestine, NHP3) of 58.9 μSv/MBq, an Estimated radiation dose ([2]; small intestine, NHP4) of 62.1 μSv/MBq and an Estimated radiation dose ([2]; small intestine, mean) of 60.5 μSv/MBq. For the same compound, the Estimated radiation dose ([2]; spleen, NHP3) was 9.6 μSv/MBq, the Estimated radiation dose ([2]; spleen, NHP4) was 8.4 μSv/MBq and the Estimated radiation dose ([2]; spleen, mean) was 9.0 μSv/MBq. For the same compound, the Estimated radiation dose ([2]; stomach wall, NHP3) was 13.2 μSv/MBq, the Estimated radiation dose ([2]; stomach wall, NHP4) was 13.1 μSv/MBq and the Estimated radiation dose ([2]; stomach wall, mean) was 13.2 μSv/MBq. For the same compound, the Estimated radiation dose ([2]; testes, NHP3) was 8.7 μSv/MBq, the Estimated radiation dose ([2]; testes, NHP4) was 8.6 μSv/MBq and the Estimated radiation dose ([2]; testes, mean) was 8.7 μSv/MBq. It also gave an Estimated radiation dose ([2]; thymus, NHP3) of 9.7 μSv/MBq, an Estimated radiation dose ([2]; thymus, NHP4) of 9.6 μSv/MBq and an Estimated radiation dose ([2]; thymus, mean) of 9.6 μSv/MBq. For the same compound, the Estimated radiation dose ([2]; thyroid, NHP3) was 9.1 μSv/MBq, the Estimated radiation dose ([2]; thyroid, NHP4) was 9.1 μSv/MBq and the Estimated radiation dose ([2]; thyroid, mean) was 9.1 μSv/MBq. For the same compound, the Estimated radiation dose ([2]; total body, NHP3) was 12.2 μSv/MBq, the Estimated radiation dose ([2]; total body, NHP4) was 12.1 μSv/MBq and the Estimated radiation dose ([2]; total body, mean) was 12.2 μSv/MBq. The Estimated radiation dose ([2]; urinary bladder wall, NHP3) was 11.3 μSv/MBq, the Estimated radiation dose ([2]; urinary bladder wall, NHP4) was 11.4 μSv/MBq and the Estimated radiation dose ([2]; urinary bladder wall, mean) was 11.4 μSv/MBq. The Estimated radiation dose ([2]; uterus, NHP3) was 16.1 μSv/MBq, the Estimated radiation dose ([2]; uterus, NHP4) was 16.3 μSv/MBq and the Estimated radiation dose ([2]; uterus, mean) was 16.2 μSv/MBq.
